Counter-ions that a name gives are not always drawn. Where a SMILES comes first, the peptide text is derived from it. Bridges are numbered along the chain shown (N, C = ends). [ ]: non-standard residue; d: D form. The star is where a group is joined. ξ: configuration not given here. Thr(3ξ) = CC(O)[C@H](N)C(=O)O; Dab = NCC[C@H](N)C(=O)O; X1 = CCCCCCC(O)C(=O)*; GABA = NCCCC(=O)O
Legend:
[1] = tested on: A. baumannii ATCC19606; assay: MIC susceptibility testing, broth microdilution in CaMHB; type: cell-based, Acinetobacter baumannii
Outline: (§1)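 Duplicate broth microdilution with an inoculum of actively growing cells: overnight CaMHB culture from MHA colonies, subcultured after 100-fold dilution until OD600 reached 0.2-0.3 […], then diluted a further 100-fold.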

[2] = tested on: A. baumannii NCTC13423; assay: as above; type: cell-based, Acinetobacter baumannii
Outline: as §1

[3] = tested on: A. baumannii ATCCBAA-747; assay: as above; type: cell-based, Acinetobacter baumannii
Outline: as §1

[4] = tested on: A. baumannii NCTC7844; assay: as above; type: cell-based, Acinetobacter baumannii
Outline: as §1

[5] = Pharmacokinetic and urinary clearance studies in rats; type: in vivo
Experimental: Drug solutions were prepared at 4 mg/mL in Normal Saline and the pH adjusted to 6-7 by adding the appropriate volume of 0.1 M H2SO4 or 4.2% NaHCO3. The solutions were filter-sterilized and stored at −80° C. before use. On the day of the experiment, drug solutions were diluted to 1 mg/mL with sterile Normal Saline.
Groups of 3 male Sprague Dawley rats were acclimatised for a minimum of 4 days before the study. Rats were anesthetized using isofluorane and a cannula was inserted into the jugular vein. One day after surgery, rats were dosed with an intravenous bolus injection of the solution at 1 mg/kg through the cannula, followed by washing with Normal Saline. Blood was collected manually through the cannula prior to administration of the compound and at 0.08, 0.25, 0.5, 1, 3, 6, 8 and 24 h thereafter. Plasma was harvested by centrifugation immediately after blood collection. Twenty-four hour urine samples were collected prior to and after administration of the compound in 0-4 h, 4-6 h, and 6-24 h intervals. Plasma and urine samples were frozen at −20° C.
Determination of the plasma and urine concentrations of the drug was performed by Liquid Chromatography Mass Spectrometry (LC-MS/MS). Before analysis the plasma and urine samples were prepared as follows. Plasma samples were thawed on the day of analysis and mixed with 3 volumes of acetonitrile containing 0.1% (v/v) formic acid and 100 ng/mL of internal standard. After centrifugation, supernatants were transferred to a 96-well plate and diluted 1:1 with water ready for analysis by LC-MS/MS. Urine samples were purified by solid-phase extraction (SPE) on Oasis HLB cartridges (Waters, UK) eluting with 100% methanol. An aliquot was transferred to a 96 well plate and diluted 1:1 with water before addition of internal standard solution, ready for analysis by LC-MS/MS.
The pharmacokinetic parameters were determined by non-compartmental analysis using WinNonLin v5.3. The urinary recovery was recorded as the percentage of intact drug recovered in the urine for the first 24 h after injection.

[6] = tested on: E. coli NCTC12900; assay: MIC susceptibility testing, broth microdilution in CaMHB; type: cell-based, Escherichia coli
Outline: as §1

[7] = tested on: E. coli NCTC9001; assay: as above; type: cell-based, Escherichia coli
Outline: as §1

[8] = tested on: E. coli ATCC25922; assay: as above; type: cell-based, Escherichia coli
Outline: as §1

[9] = tested on: E. coli ATCC700928; assay: as above; type: cell-based, Escherichia coli
Outline: as §1

[10] = tested on: P. aeruginosa ATCC27853; assay: as above; type: cell-based, Pseudomonas aeruginosa
Outline: as §1

[11] = tested on: P. aeruginosa ATCC 9721; assay: as above; type: cell-based, Pseudomonas aeruginosa
Outline: as §1

[12] = tested on: P. aeruginosa ATCC10145; assay: as above; type: cell-based, Pseudomonas aeruginosa
Outline: as §1

[13] = tested on: P. aeruginosa ATCCCRM-9027; assay: as above; type: cell-based, Pseudomonas aeruginosa
Outline: as §1

[14] = tested on: K. pneumoniae NCTC7427; assay: as above; type: cell-based, Klebsiella pneumoniae
Outline: as §1

[15] = tested on: K. pneumoniae ATCCBAA-1706; assay: as above; type: cell-based, Klebsiella pneumoniae; settings: Table 4
Outline: as §1

[16] = tested on: K. pneumoniae NCTC8172; assay: as above; type: cell-based, Klebsiella pneumoniae
Outline: as §1

[17] = tested on: K. pneumoniae ATCC 4352; assay: as above; type: cell-based, Klebsiella pneumoniae
Outline: as §1

[18] = Table 4A, different batches of cation-adjusted Muller-Hinton broth
[19] = male, Sprague Dawley, rat, in vivo, iv, 1 mg/kg
[20] = P. aeruginosa ATCC 9721, Table 4
[21] = P. aeruginosa ATCC9721, Table 4A, different batches of cation-adjusted Muller-Hinton broth
[22] = P. aeruginosa AATCCRM 9027, Table 4A, different batches of cation-adjusted Muller-Hinton broth
[23] = P. aeruginosa ATCCCRM-9027, Table 4
[24] = K. pneumoniae ATCC 4352, Table 4
[25] = K. pneumoniae ATCC4352, Table 4A, different batches of cation-adjusted Muller-Hinton broth
[26] = male Sprague Dawley rats, intravenous bolus 1 mg/kg
[27] = male Sprague Dawley rats, intravenous bolus 1 mg/kg, plasma

With `CCCCCCC(O)C(=O)N[C@H](C(=O)N[C@@H](CCN)C(=O)N[C@H]1CCNC(=O)[C@H](C(C)O)NC(=O)[C@H](CCN)NC(=O)[C@H](CCN)NC(=O)[C@H](CC(C)C)NC(=O)[C@@H](Cc2ccccc2)NC(=O)[C@H](CCN)NC1=O)C(C)O` (stereo partly drawn) [Example 2, [2(R,S)-2-Hydroxyoctanoyl] Polymyxin B Nonapeptide, Sulphate Salt] (X1-[Thr(3ξ)][Dab][Dab][Dab][dF]L[Dab][Dab][Thr(3ξ)]; lactam 3-C) the MIC ([1]; Table 4) was 2 micrograms/mL, the MIC [1, 18] was 2 micrograms/mL and the MIC ([2]; Table 4) was 1 micrograms/mL. It also gave an MIC [2, 18] of 1 micrograms/mL, an MIC ([3]; Table 4) of 2 micrograms/mL and an MIC [3, 18] of 2 micrograms/mL. For the same compound, the MIC ([4]; Table 4) was 2 micrograms/mL, the MIC [4, 18] was 4 micrograms/mL and the AUC(0-inf) [5, 19] was 4010 ng·h/mL. The Cmax [5, 19] was 2400 ng/mL, the Vd [5, 19] was 0.488 L/kg and the clearance [5, 19] was 4.18 mL/min/kg. It also gave a half-life [5, 19] of 1.34 h, an MIC ([6]; Table 4) of 0.25 micrograms/mL and an MIC [6, 18] of 8 micrograms/mL. For the same compound, the MIC ([7]; Table 4) was 0.25 micrograms/mL, the MIC [7, 18] was 2 micrograms/mL and the MIC ([8]; Table 4) was 1 micrograms/mL. The MIC [8, 18] was 2 micrograms/mL, the MIC ([9]; Table 4) was 0.25 micrograms/mL and the MIC [9, 18] was 0.5 micrograms/mL. It also gave an MIC ([10]; Table 4) of 0.5 micrograms/mL, an MIC [10, 18] of 0.5 micrograms/mL and an MIC [11, 20] of 2 micrograms/mL. For the same compound, the MIC [11, 21] was 0.5 micrograms/mL, the MIC ([12]; Table 4) was 1 micrograms/mL and the MIC [12, 18] was 1 micrograms/mL. The MIC [13, 22] was 0.5 micrograms/mL, the MIC [13, 23] was 0.25 micrograms/mL and the MIC ([14]; Table 4) was 4 micrograms/mL. For the same compound, the MIC [14, 18] was 0.5 micrograms/mL, the MIC [15] was 0.5 micrograms/mL and the MIC ([16]; Table 4) was 4 micrograms/mL. It also gave an MIC [16, 18] of 4 micrograms/mL, an MIC [17, 24] of 0.5 micrograms/mL and an MIC [17, 25] of 1 micrograms/mL.
`CC(C)C[C@@H]1NC(=O)[C@@H](Cc2ccccc2)NC(=O)[C@H](CCN)NC(=O)[C@@H](NC(=O)[C@H](CCN)NC(=O)[C@@H](NC(=O)CCCN)[C@@H](C)O)CCNC(=O)[C@H]([C@@H](C)O)NC(=O)[C@H](CCN)NC(=O)[C@H](CCN)NC1=O` [Example 6, 4-Aminobutanoyl Polymyxin B Nonapeptide, Sulphate Salt] (H-[GABA]T[Dab][Dab][Dab][dF]L[Dab][Dab]T; lactam 4-C) showed an MIC ([1]; Table 4) of 0.25 micrograms/mL, an MIC [1, 18] of 4 micrograms/mL and an MIC ([4]; Table 4) of 2 micrograms/mL. For the same compound, the MIC [4, 18] was 2 micrograms/mL, the AUC(0-inf) [5, 19] was 2620 ng·h/mL and the Cmax [5, 19] was 3580 ng/mL. The Vd [5, 19] was 0.289 L/kg, the clearance [5, 19] was 6.43 mL/min/kg and the half-life [5, 19] was 0.56 h. The MIC ([6]; Table 4) was 2 micrograms/mL, the MIC [6, 18] was 8 micrograms/mL and the MIC ([7]; Table 4) was 1 micrograms/mL. It also gave an MIC [7, 18] of 8 micrograms/mL, an MIC ([8]; Table 4) of 0.5 micrograms/mL and an MIC [8, 18] of 2 micrograms/mL. It also gave an MIC ([9]; Table 4) of 0.125 micrograms/mL, an MIC [9, 18] of 2 micrograms/mL and an MIC ([10]; Table 4) of 0.25 micrograms/mL. It also gave an MIC [10, 18] of 0.25 micrograms/mL, an MIC [11, 20] of 0.125 micrograms/mL and an MIC [11, 21] of 0.125 micrograms/mL. The MIC ([12]; Table 4) was 0.25 micrograms/mL, the MIC [12, 18] was 0.5 micrograms/mL and the MIC [13, 22] was 0.25 micrograms/mL. The MIC [13, 23] was 0.125 micrograms/mL, the MIC ([14]; Table 4) was 0.125 micrograms/mL and the MIC [14, 18] was 0.125 micrograms/mL. The MIC [15] was 0.25 micrograms/mL, the MIC [16, 18] was 16 micrograms/mL and the MIC [17, 24] was 0.125 micrograms/mL. For the same compound, the MIC [17, 25] was 1 micrograms/mL.
Polymyxin B [reference compound] gave an MIC ([1]; Table 4) of 0.5 micrograms/mL, an MIC [1, 18] of 0.125 micrograms/mL and an MIC ([2]; Table 4) of 0.25 micrograms/mL. The MIC [2, 18] was <0.06 micrograms/mL, the MIC ([3]; Table 4) was 0.25 micrograms/mL and the MIC [3, 18] was 0.125 micrograms/mL. For the same compound, the MIC ([4]; Table 4) was 0.25 micrograms/mL, the MIC [4, 18] was 0.25 micrograms/mL and the “CL (clearance)” value [5, 26] was 7.15 mL/min/kg. The Vd [5, 26] was 1.12 L/kg, the AUC(0-inf) [5, 27] was 2372 ng·h/mL and the Cmax [5, 27] was 1455 ng/mL. For the same compound, the t1/2 [5, 27] was 1.94 h, the Urinary recovery ([5]; male Sprague Dawley rats, intravenous bolus 1 mg/kg, intact drug in urine in first 24 h) was 0.3 % dose and the MIC [6, 18] was 0.25 micrograms/mL. For the same compound, the MIC ([7]; Table 4) was 0.25 micrograms/mL, the MIC [7, 18] was 0.25 micrograms/mL and the MIC ([8]; Table 4) was 0.5 micrograms/mL. For the same compound, the MIC [8, 18] was 1 micrograms/mL, the MIC ([9]; Table 4) was 0.25 micrograms/mL and the MIC [9, 18] was 0.25 micrograms/mL. The MIC ([10]; Table 4) was 0.5 micrograms/mL, the MIC [10, 18] was 0.5 micrograms/mL and the MIC [11, 20] was 0.5 micrograms/mL. For the same compound, the MIC [11, 21] was 0.125 micrograms/mL, the MIC ([12]; Table 4) was 0.5 micrograms/mL and the MIC [12, 18] was 1 micrograms/mL. It also gave an MIC [13, 22] of 0.25 micrograms/mL, an MIC [13, 23] of 0.25 micrograms/mL and an MIC ([14]; Table 4) of 0.25 micrograms/mL. For the same compound, the MIC [14, 18] was 0.25 micrograms/mL, the MIC [15] was 0.25 micrograms/mL and the MIC ([16]; Table 4) was 0.5 micrograms/mL. It also gave an MIC [16, 18] of 1 micrograms/mL, an MIC [17, 24] of 0.5 micrograms/mL and an MIC [17, 25] of 0.25 micrograms/mL.
